Tests used:
[1] = system: serotonin 3 (5--HT3) receptor; experiment: Effect on Von Bezold-Jarisch reflex in rats (serotonin 3 receptor antagonist activity); assay type: in vivo, rat; details: male Wistar or SD rats, anesthetized; test compound 1 μg/kg i.v. 3 minutes before 2-methylserotonin (10-30 μg/kg i.v.)
Procedure: Effect on Von Bezold-Jarisch reflex in rats
(Serotonin 3 receptor antagonist activity)
The test was carried out substantially by the method of Fozard et al. [cf. Arch. Pharmacology, 326, 36-44 (1984)]. Male Wistar rats weighing 250-350 g or male SD rats weighing 300-400 g were anesthetized with urethane (1.5 g/kg, interraperitoneal) and placed on their back. An electrocardiogram (lead II) and a heart rate on the animals were recorded on an inkwriting oscillograph via a biophysical amplifier and a pulse rate tachomether, respectively. […] After stable responses were obtained following repeated administration of 2-methylserotonin at 15-minute intervals, the test compound (1 μg/kg) was administered intravenously 3 minutes before administration of 2-methylserotonin. The inhibition rate of the test compound was calculated as follows. [formula]

mice = experiment: Acute toxicity in mice; assay type: in vivo, mouse; details: male Std-ddY mice; 100 mg/kg i.p.; mortality observed for 7 days
Procedure: An acute toxicity test was performed using male Std-ddY mice weighing 25-30 g. Test compounds dissolved or suspended in 0.5 % tragacanth solution were administered intraperitoneally.

[2] = system: cisplatin-induced vomiting in ferrets; experiment: Effect on cisplatin-induced vomiting in ferrets; assay type: in vivo, ferret; details: male ferrets; 0.03 mg/kg i.v. twice (30 minutes before and 45 minutes after cisplatin 10 mg/kg); emetic episodes for 3 hours
Procedure: Effect on cisplatin-induced vomiting in ferrets and acute toxicity in mice
Male ferrets (Marshall Lab., U.S.A.) weighing approximately 1 kg were used. For intravenous injection, a cannule was implanted in the cervical vein under pentobarbital anethesia. The experiments were started 3 and 4 days after the operation. Saline (2 ml/kg) as a control group and a dose (0.03 mg/kg) of a test compound as a treated group were administered twice, i.e., 30 minutes before and 45 minutes after administratin of 10 mg/kg of cisplatin (Sigma, U.S.A) dissolved in saline (3 ml/kg). The number of emetic episodes for 3 hours after administration of cisplatin was recorded, and the inhibition rate of the test compound was calculated as follows. [formula]
All test compounds were administered intravenously.

Compound	Inhibition rate (%) of Von Bezold-Jarisch reflex [1]	Acute toxicity in mice (number of dead animals/number of animals used) (mice)	Inhibition of emetic episodes in ferrets, inhibition rate (%) [2]
CN1CCN(Cc2ccc(C#N)cc2)CC(NC(=O)c2n[nH]c3ccccc23)C1 (stereo not shown) [Example 13]	83%		
Cc1cccc(CN2CCN(C)CC(NC(=O)c3n[nH]c4ccccc34)C2)c1 (stereo not shown) [Example 1(a), N-[1-(3-methylbenzyl)4-methylhexahydro-1H-1,4-diazepin-6-yl]-1H-indazole-3-carboxamide]	82%	1/5	89%
CN1CCN(Cc2ccc(Br)cc2)CC(NC(=O)c2n[nH]c3ccccc23)C1 (stereo not shown) [Example 10]	82%		
CC(=O)n1nc(C(=O)NC2CN(C)CCN(Cc3ccccc3)C2)c2ccccc21 (stereo not shown) [Example 52, N-(1-benzyl-4-methylhexahydro-1H-1,4-diazepin-6-yl)-1-acetyl-1H-indazole-3-carboxamide]	89%		
CCC(=O)n1nc(C(=O)NC2CN(C)CCN(Cc3ccccc3)C2)c2ccccc21 (stereo not shown) [Example 53, N-(1-benzyl-4-methylhexahydro-1H-1,4-diazepin-6-yl)-1-propionyl-1H-indazole-3-carboxamide]	83%	1/5	29%
COc1ccc(CN2CCN(C)CC(NC(=O)c3n[nH]c4ccccc34)C2)cc1 (stereo not shown) [Example 5]	78%		
CC1CN(Cc2ccccc2)CC(NC(=O)c2n[nH]c3ccccc23)CN1C (single isomer, unassigned) [Example 67, N-(1-benzyl-3,4-dimethylhexahydro-1H-1,4-diazepin-6-yl)-1H -indazole-3-carboxamide]	72%		
CN1CCN(Cc2ccccc2)CC(NC(=O)c2nn(C)c3ccccc23)C1 (stereo not shown) [Example 33, N-(1-benzyl-4-methylhexahydro-1H-1,4-diazepin-6-yl)-1-methyl-1H-indazole-3-carboxamide]	96%	2/5	44%
CCCCn1nc(C(=O)NC2CN(C)CCN(Cc3ccccc3)C2)c2ccccc21 (stereo not shown) [Example 46]	70%		
CN1CCN(Cc2ccccc2F)CC(NC(=O)c2n[nH]c3ccccc23)C1 (stereo not shown) [Example 6]	75%		
CN1CCN(Cc2ccccc2)CC(NC(=O)c2n[nH]c3ccccc23)C1 (stereo not shown) [Example 32, N-(1-benzyl-4-methylhexahydro-1H-1,4-diazepin-6-yl)-1H-indazole-3-carboxamide]		0/5	62%
Cc1ccc(CN2CCN(C)CC(NC(=O)c3n[nH]c4ccccc34)C2)cc1 (stereo not shown) [Example 3]	92%		
C=CCn1nc(C(=O)NC2CN(C)CCN(Cc3ccccc3)C2)c2ccccc21 (stereo not shown) [Example 48]	79%		
CC1CN(C)CC(NC(=O)c2n[nH]c3ccccc23)CN1Cc1ccccc1 (single isomer, unassigned) [Example 69, N-(1-benzyl-2,4-dimethylhexahydro-1H-1,4-diazepin-6-yl)-1H -indazole-3-carboxamide]	90%		
CN1CCN(Cc2ccc(F)cc2)CC(NC(=O)c2n[nH]c3ccccc23)C1 (stereo not shown) [Example 8]	77%	0/5	71%
CN1CCN(Cc2ccccc2C#N)CC(NC(=O)c2n[nH]c3ccccc23)C1 (stereo not shown) [Example 11, N-[1-(2-cyanobenzyl)-4-methylhexahydro-1H-1,4-diazepin-6-yl]-1H-indazole-3-carboxamide]	95%		
CN1CCN(Cc2cccnc2)CC(NC(=O)c2n[nH]c3ccccc23)C1 (stereo not shown) [Example 16, N-[1-(3-pyridylmethyl)-4-methylhexahydro-1H-1,4-diazepin-6-yl]-1H-indazole-3-carboxamide]	85%	0/5	82%
Cc1cccc(CN2CCN(C)CC(NC(=O)c3n[nH]c4ccccc34)C2)c1 (stereo not shown) [1(b), N-[1-(3-methylbenzyl)4-methylhexahydro-1H-1,4-diazepin-6-yl]-1H-indazole-3-carboxamide]	83%		
CN1CCN(Cc2cc(F)cc(F)c2)CC(NC(=O)c2n[nH]c3ccccc23)C1 (stereo not shown) [Example 23]	86%		
CN1CCN(Cc2cccc(F)c2)CC(NC(=O)c2n[nH]c3ccccc23)C1 (stereo not shown) [Example 7]	84%		
CN1CCN(Cc2ccncc2)CC(NC(=O)c2n[nH]c3ccccc23)C1 (stereo not shown) [Example 17]	91%	1/5	62%

Source: patent US5017573A, “Indazole-3-carboxylic acid derivatives” (Dainippon Pharmaceutical Co., Ltd., priority 1988, dated 1991)
